What was measured:
Trypanosoma cruzi [1] = assay: GSK_TCAKS: pIC50 Trypanosoma cruzi viability assay using beta-GAL activity. This assay was run at single shot at 5uM compound concentration per well. The biological reagents consisted of NIH-3T3 host cells and trypomastigotes parasitic cells; both cell types were set to a 3.3 * 10^5 cells/mL dilution in assay DMEM by means of a CASY cell counter device using a 60um capillary. 6 uL of the mixture were dispensed per well (about 1 * 10^3 host-cells and 1 * 10^3 parasites) with a Multidrop Combi dispenser. […] In all wells, the percentage of DMSO never exceeded 0.5%. Plates incubated for four days at 37C, 5% CO2. The substrate used for the assay fluorescence intensity (FLINT) readout was resorufin-beta-D-galactopiranoside (Sigma-Aldrich) at 5uM per well. It was diluted in PBS supplemented with the soft detergent Igepal (Fluka).; type: functional, organism-based, Mus musculus; conditions: Tulahuen, NIH3T3
Trypanosoma cruzi [2] = assay: (§1) GSK_TCAKS: pIC50 Trypanosoma cruzi Imaging: Infected Cells. […] Cells were then washed once with PBS before infection. T. cruzi trypomastigotes, collected at days 5 to 8 after infection from LLC-MK2 parasite infected cultures, were allowed to swim out for 4h at 37C from a centrifuged pellet (2,500 rpm/10 min/room temperature). Trypomastigotes were then collected and counted in a CASY Cell Counter. Trypomastigotes, in supplemented DMEM, were added to H9c2 cultures in a multiplicity of infection of 1 and incubated for 18 h. Cells were washed once with PBS before incubation of the infected H9c2 monolayer with trypsin (Life-Technologies) to detach cells from the flask. Cells were counted in a CASY Cell Counter using a 150 um capillary and their density set at 5 * 10^4 cells per mL in supplemented assay DMEM. Infected H9c2 were dispensed into 384-well poly-lysine coated assay plates at 50uL per well using a Multidrop Combi dispenser. After seeding them, the plates were incubated at 37C, 5% CO2 for 72h. Cultures were then fixed and stained by addition of 50 uL of a solution containing 8% formaldehyde and 4 uM DRAQ5 DNA dye (BioStatus, UK) per well. […] Five images were collected per well for reliable statistical analysis. Automated image analysis was performed with a script developed on Acapella High Content Imaging and Analysis Software (PerkinElmer). Output: percentage of infected cells per well as a second infection marker.; type: functional, organism-based, Rattus norvegicus; conditions: H9c2, 4 h
Trypanosoma cruzi [3] = assay: GSK_TCAKS: pIC50 Trypanosoma cruzi Imaging: Amastigotes/Cell. […] Cells were then washed once with PBS before infection. T. cruzi trypomastigotes, collected at days 5 to 8 after infection from LLC-MK2 parasite infected cultures, were allowed to swim out for 4h at 37C from a centrifuged pellet (2,500 rpm/10 min/room temperature). Trypomastigotes were then collected and counted in a CASY Cell Counter. Trypomastigotes, in supplemented DMEM, were added to H9c2 cultures in a multiplicity of infection of 1 and incubated for 18 h. Cells were washed once with PBS before incubation of the infected H9c2 monolayer with trypsin (Life-Technologies) to detach cells from the flask. Cells were counted in a CASY Cell Counter using a 150 um capillary and their density set at 5 * 10^4 cells per mL in supplemented assay DMEM. Infected H9c2 were dispensed into 384-well poly-lysine coated assay plates at 50uL per well using a Multidrop Combi dispenser. After seeding them, the plates were incubated at 37C, 5% CO2 for 72h. Cultures were then fixed and stained by addition of 50 uL of a solution containing 8% formaldehyde and 4 uM DRAQ5 DNA dye (BioStatus, UK) per well. […] Five images were collected per well for reliable statistical analysis. Automated image analysis was performed with a script developed on Acapella High Content Imaging and Analysis Software (PerkinElmer). Output: number of amastigotes per cell as infection level measurement.; type: functional, organism-based, Rattus norvegicus; conditions: H9c2, 4 h
Trypanosoma cruzi [4] = assay: as §1, with “H2C9” for “Trypanosoma cruzi”, “H9c2 Host Cardiomyocytes.” for “Infected Cells.”, “Number” for “percentage”, “H9c2 Host Cardiomyocytes nuclei to determine drug-related cytotoxicity.” for “infected cells per well as a second infection marker.”; type: functional, organism-based, Rattus norvegicus; conditions: H9c2, 4 h
Leishmania donovani [5] = assay: GSK_TCAKS: pIC50 Leishmania donovani viability assay using fluorescence intensity. Assay plates (1536-well) were prepared by adding 30nL per well of compound. For single shot assay, the final compound concentration was 5uM. […] Briefly, eGFP LdBOB axenic amastigotes were harvested, fixed and counted in a CASY cell counter (Roche-Applied Science). A final concentration of 1.5 * 10^5 cells per well were prepared in amastigote media containing 500 U/mL penicillin/streptomycin (Invitrogen) and 6uL was dispensed to each experimental well using a Multidrop Combi dispenser (Thermo Scientific). 6uL of assay media was dispensed to control columns used as reference for 100% compound response. Following incubation for 72 h at 37C, 5% CO2, 2 uL of resazurin was added to each well at a final concentration of 0.5 mM in phosphate buffered saline (PBS) with IGEPAL (Sigma-Aldrich), 0.05% (v/v).; type: functional, organism-based
Leishmania donovani [6] = assay: GSK_TCAKS: pIC50 Leishmania donovani Imaging: Infected Macrophages. Assay plates (384-well) were prepared by adding 250nL of compound to each well. For single shot assay, the final compound concentration was 5 uM. […] Automated image analysis was performed with a script developed on Acapella High Content Imaging and Analysis Software (PerkinElmer). Output: Percent of infected macrophage cells were reported for each well.; type: functional, organism-based, Homo sapiens; conditions: THP-1
Leishmania donovani [7] = assay: GSK_TCAKS: pIC50 Leishmania donovani Imaging: Amastigotes/Macrophages. Assay plates (384-well) were prepared by adding 250nL of compound to each well. For single shot assay, the final compound concentration was 5 uM. […] Automated image analysis was performed with a script developed on Acapella High Content Imaging and Analysis Software (PerkinElmer). Output: Average number of amastigotes per macrophage cell were reported for each well.; type: functional, organism-based, Homo sapiens; conditions: THP-1
Leishmania donovani [8] = assay: GSK_TCAKS: pIC50 Leishmania donovani Imaging: THP-1 Host Macrophages. Assay plates (384-well) were prepared by adding 250nL of compound to each well. For single shot assay, the final compound concentration was 5 uM. […] Automated image analysis was performed with a script developed on Acapella High Content Imaging and Analysis Software (PerkinElmer). Output: THP-1 cell count were reported for each well.; type: functional, organism-based, Homo sapiens
[9] = tested on: Trypanosoma brucei brucei; assay: GSK_TCAKS: pIC50 Trypanosoma brucei viability assay using fluorescence intensity. Assay plates (1536-well) were prepared by dispensing 25nL of compound solution per well using an Echo acoustic dispenser (Labcyte).; type: functional, organism-based; conditions: Lister 427, 2 h
[10] = tested on: Trypanosoma brucei brucei; assay: GSK_TCAKS: pIC50 Trypanosoma brucei viability assay using luminiscence. Assay plates (1536-well) were prepared. T. brucei cultures were harvested and counted in a CASY cell counter. A parasite suspension was prepared at a final concentration of 5 * 10^4 cells/mL in complete HMI9 medium and 6uL was dispensed to all wells containing compounds using a Multidrop Combi dispenser. 6uL of HMI9 media with 0.4% DMSO were dispensed to control columns. Plates were incubated for 24 h at 37C, 5% CO2 then tempered for 10 min at room temperature. ATP content was quantified by adding 4 uL of CellTiter-Glo Reagent (Promega) according to the manufacturer's instructions. Luminescence was measured using a ViewLux.; type: functional, organism-based; conditions: Lister 427, CASY
[11] = GSK_TCAKS: pIC50 HepG2 human cell line viability assay using luminiscence. […] Seeding density was checked to ensure that new mono-layers were not more than 50% confluent at the time of harvesting. Cell suspension was added to 500 mL of the same medium at a final density of 1.2 * 10^5 cells/mL. This cell suspension was dispensed (25 uL, 3000 cells per well) into 384-well clear-bottom plates using a Multidrop Combi dispenser. Prior to addition of the cell suspension, the screening compounds (250 nL) were pre-dispensed into the plates with an Echo liquid handler. Plates were incubated for 48 h at 37C, 5% CO2. After incubation, plates equilibrated at room temperature for 30 min before proceeding to develop the luminescent signal. The signal developer, CellTiter-Glo Reagent, was allowed to equilibrate at room temperature for 30 min and added to the plates (25uL per well) using a Multidrop Combi dispenser. Plates were left for 10 min at room temperature for stabilization and then read using a ViewLux.; type: toxicity, cell-based
[12] = target: Sterol 14-alpha demethylase (Trypanosoma cruzi (strain CL Brener), UniProt Q7Z1V1); assay: GSK_TCAKS: pIC50 CYP51 from Trypanosoma cruzi.; type: functional
Chain of Sterol 14-alpha demethylase (Q7Z1V1 whole entry): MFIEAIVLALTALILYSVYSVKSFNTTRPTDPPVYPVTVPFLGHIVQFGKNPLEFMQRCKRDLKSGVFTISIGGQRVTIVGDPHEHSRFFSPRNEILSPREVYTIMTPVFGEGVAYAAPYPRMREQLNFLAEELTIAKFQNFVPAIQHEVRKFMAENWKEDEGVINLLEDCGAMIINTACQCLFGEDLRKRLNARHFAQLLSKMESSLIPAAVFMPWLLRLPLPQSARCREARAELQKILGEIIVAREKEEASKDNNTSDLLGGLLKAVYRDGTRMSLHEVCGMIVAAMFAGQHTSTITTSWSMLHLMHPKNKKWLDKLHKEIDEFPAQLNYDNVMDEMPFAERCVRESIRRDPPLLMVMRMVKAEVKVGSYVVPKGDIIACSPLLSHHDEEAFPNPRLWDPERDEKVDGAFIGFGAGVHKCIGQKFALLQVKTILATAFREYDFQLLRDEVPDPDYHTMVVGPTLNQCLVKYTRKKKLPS

SMILES | IC50 (Trypanosoma cruzi [1]) | IC50 (Trypanosoma cruzi [2]) | IC50 (Trypanosoma cruzi [3]) | IC50 (Trypanosoma cruzi [4]) | IC50 (Leishmania donovani [5]) | IC50 (Leishmania donovani [6]) | IC50 (Leishmania donovani [7]) | IC50 (Leishmania donovani [8]) | IC50 [9] | IC50 [10] | IC50 at 48 h [11] | IC50 [12]
COc1ccccc1-n1c(SCC(=O)Nc2ccc3c(c2)OCO3)nc2c(c1=O)SCC2 | 39.8 µM | 15.8 µM | 7.94 µM | > 50.1 µM | 10 µM | 7.94 µM | 5.01 µM | > 50.1 µM | > 39.8 µM | > 39.8 µM | > 100 µM | 63.1 µM
CC(C)S(=O)(=O)c1ccc(-c2cnc(N)c3cc(-c4ccnc(N)n4)ccc23)cc1 | 0.794 µM | 39.8 µM | 12.6 µM | 0.501 µM | 2 µM | 1.26 µM | 0.501 µM | 2.51 µM | 0.2 µM | 0.251 µM | 15.8 µM | 15.8 µM
CCNc1cc(-c2ccccn2)nc(Nc2ccccc2)n1 | 0.794 µM | 3.16 µM | 3.16 µM | 0.251 µM | 2.51 µM | 0.794 µM | 0.631 µM | 20 µM | 25.1 µM | 12.6 µM | 25.1 µM | > 100 µM
CCc1nn(-c2ncc(F)c(NC(C)C)n2)c(N)c1C1CCCCC1 | 3.55 µM | 3.16 µM | 1.58 µM | 1 µM | 3.16 µM | 3.16 µM | 1.58 µM | 15.8 µM | 10 µM | 15.8 µM | 31.6 µM | > 100 µM
O=C(COc1ccccc1)Nc1ccccc1C(=O)Nc1nccs1 | > 50.1 µM | > 50.1 µM | > 50.1 µM | > 50.1 µM | > 50.1 µM | > 50.1 µM | > 50.1 µM | 7.94 µM | 0.398 µM | 0.631 µM | > 100 µM | > 100 µM
COCc1cnc2c(c1SCc1c(F)cccc1Cl)c(=O)n(C)c(=O)n2C | > 50.1 µM | 3.98 µM | 2.51 µM | > 50.1 µM | 3.98 µM | 5.01 µM | 5.01 µM | > 50.1 µM | 3.98 µM | > 39.8 µM | > 100 µM | 25.1 µM
CCOC(=O)c1cn[nH]c1S(=O)(=O)N1CCC1c1ccccc1 (configuration not stated) | > 50.1 µM | > 50.1 µM | > 50.1 µM | > 50.1 µM | > 50.1 µM | > 50.1 µM | > 50.1 µM | > 50.1 µM | 0.631 µM | 0.794 µM | > 100 µM | 50.1 µM
COc1ccc(C(=O)NC2CCN(CCn3c(=O)ccc4ncc(F)cc43)CC2)cc1Cl | 0.501 µM | 0.631 µM | 0.316 µM | > 50.1 µM | 3.98 µM | > 50.1 µM | 15.8 µM | > 50.1 µM | 0.126 µM | 0.251 µM | > 100 µM | 15.8 µM
O=C(CN(Cc1ccccn1)Cc1ccccn1)NCc1csc(-c2cccs2)n1 | 3.98 µM | 6.31 µM | 2.51 µM | > 50.1 µM | 12.6 µM | 6.31 µM | 3.16 µM | > 50.1 µM | 20 µM | 15.8 µM | > 100 µM | 39.8 µM
O=C(NCCCn1cnc2ccccc21)c1ccc(NC(=O)c2ccco2)cc1 | 3.98 µM | 2 µM | 1.26 µM | > 50.1 µM | 1.26 µM | > 50.1 µM | 12.6 µM | > 50.1 µM | 0.2 µM | 0.251 µM | 15.8 µM | 15.8 µM
COc1cc2c(cc1OC)[C@H]1[C@@H](C)c3ccc(OC)c(OC)c3CN1CC2 | 25.1 µM | > 50.1 µM | 20 µM | > 50.1 µM | 2.51 µM | 20 µM | 15.8 µM | > 50.1 µM | 25.1 µM | > 39.8 µM | > 100 µM | 79.4 µM
